Source: ChEMBL document CHEMBL3885861, “Open TG-GATES”

Species: Rattus norvegicus
Experiment: Open TG-GATES - Regimen: Single
Type: toxicity, organism-based, Sprague-Dawley
Parameters: regimen Single, gender Male, age 6 weeks
Settings: in vivo, iv, route intravenous injection; for APTT / Bas / Eos / Fbg / Lym / MCHC / MCV / Mono / Neu / Plat / RBC / Ret / WBC / Ht / PT / Hb / MCH: tissue Blood; for KIDNEY_L / KIDNEY_R / KIDNEY_TOTAL: tissue Kidney; for LIVER: tissue Liver
[1] = 0 mg/kg, 3 h, dose level Control
[2] = 0 mg/kg, 3 h, tissue Plasma, dose level Control
[3] = 0 mg/kg, 6 h, dose level Control
[4] = 0 mg/kg, 6 h, tissue Plasma, dose level Control
[5] = 0 mg/kg, 9 h, dose level Control
[6] = 0 mg/kg, 9 h, tissue Plasma, dose level Control
[7] = 0 mg/kg, 24 h, dose level Control
[8] = 0 mg/kg, 24 h, tissue Plasma, dose level Control
[9] = 10 mg/kg, 3 h, tissue Plasma, dose level Low
[10] = 10 mg/kg, 6 h, tissue Plasma, dose level Low
[11] = 10 mg/kg, 9 h, tissue Plasma, dose level Low
[12] = 10 mg/kg, 24 h, tissue Plasma, dose level Low
[13] = 30 mg/kg, 3 h, dose level Middle

## GENTAMICIN
[1]
  TERMINAL_BW: 212.9 g
  APTT: 22 s
  Bas: 0%
  Eos: 0.8%
  Fbg: 293.2 mg/dL
  Lym: 79.6%
  MCHC: 33.9%
  MCV: 61.4 fL
  Mono: 2.8%
  Neu: 16%
  Plat: 119.4 x10_4/uL
  RBC: 631.2 x10_4/ul
  Ret: 6.4%
  WBC: 123.3 x10_2/uL
  KIDNEY_L: 0.9 g
  KIDNEY_R: 0.9 g
  KIDNEY_TOTAL: 1.9 g
  LIVER: 9.3 g
[2]
  ALP: 1296.6 IU/L
  ALT: 39.2 IU/L
  AST: 70.6 IU/L
  CRE: 0.2 mg/dL
  DBIL: 0 mg/dL
  GLC: 187.4 mg/dL
  IP: 7.4 mg/dL
  K: 4.4 meq/L
  LDH: 165.6 IU/L
  PL: 121.4 mg/dL
  RALB: 2.9 g/dL
  TBIL: 0.022 mg/dL
  TC: 63.6 mg/dL
  TG: 71 mg/dL
  TP: 5.3 g/dL
  gamma-GTP: 1.2 IU/L
[3]
  TERMINAL_BW: 209.6 g
  APTT: 23.6 s
  Bas: 0%
  Eos: 0.6%
  Fbg: 270.6 mg/dL
  Ht: 39.7%
  MCHC: 33.6%
  Mono: 2.6%
  PT: 16.4 s
  Plat: 119.5 x10_4/uL
  RBC: 629 x10_4/ul
  Ret: 7%
  WBC: 123.2 x10_2/uL
  KIDNEY_L: 0.9 g
  KIDNEY_R: 0.9 g
  KIDNEY_TOTAL: 1.8 g
  LIVER: 8.7 g
[4]
  ALP: 1253 IU/L
  ALT: 36.6 IU/L
  AST: 70.2 IU/L
  BUN: 11.2 mg/dL
  CRE: 0.2 mg/dL
  DBIL: 0 mg/dL
  IP: 8.3 mg/dL
  K: 4.4 meq/L
  LDH: 199.6 IU/L
  RALB: 2.9 g/dL
  TBIL: 0.018 mg/dL
  TC: 74 mg/dL
  TG: 75 mg/dL
  TP: 5.3 g/dL
  gamma-GTP: 1.2 IU/L
[5]
  APTT: 22.8 s
  Bas: 0%
  Eos: 1%
  Fbg: 313.6 mg/dL
  Hb: 12.9 g/dL
  Ht: 38.5%
  Lym: 82%
  MCHC: 33.5%
  MCV: 61.2 fL
  Mono: 2.6%
  PT: 16 s
  Plat: 124.4 x10_4/uL
  RBC: 628 x10_4/ul
  Ret: 6.9%
  WBC: 82.5 x10_2/uL
  KIDNEY_L: 0.9 g
  KIDNEY_R: 0.9 g
  KIDNEY_TOTAL: 1.8 g
  LIVER: 8.3 g
[6]
  ALP: 1527.6 IU/L
  ALT: 36.4 IU/L
  AST: 67.4 IU/L
  CRE: 0.2 mg/dL
  DBIL: 0 mg/dL
  GLC: 199.2 mg/dL
  IP: 9.5 mg/dL
  K: 4.1 meq/L
  LDH: 131.6 IU/L
  PL: 126.2 mg/dL
  RALB: 2.9 g/dL
  TBIL: 0.022 mg/dL
  TG: 38.2 mg/dL
  TP: 5.4 g/dL
  gamma-GTP: 1.2 IU/L
[7]
  TERMINAL_BW: 228.2 g
  APTT: 23.4 s
  Bas: 0%
  Eos: 1%
  Fbg: 293.6 mg/dL
  Ht: 38.2%
  MCHC: 34.3%
  MCV: 61.9 fL
  Mono: 2.6%
  Neu: 16%
  Plat: 125.4 x10_4/uL
  RBC: 618.6 x10_4/ul
  Ret: 5.8%
  WBC: 109.8 x10_2/uL
  KIDNEY_L: 1 g
  KIDNEY_R: 1 g
  KIDNEY_TOTAL: 2 g
[8]
  ALP: 1416.8 IU/L
  AST: 71.6 IU/L
  BUN: 15 mg/dL
  CRE: 0.2 mg/dL
  DBIL: 0 mg/dL
  IP: 6.9 mg/dL
  K: 4.4 meq/L
  LDH: 156.8 IU/L
  Na: 140.4 meq/L
  PL: 138.2 mg/dL
  RALB: 3 g/dL
  TBIL: 0.012 mg/dL
  TC: 68.4 mg/dL
  TG: 114.4 mg/dL
  TP: 5.4 g/dL
  gamma-GTP: 1.4 IU/L
10 mg/kg, 3 h, dose level Low
  TERMINAL_BW: 211.7 g
  APTT: 22.2 s
  Bas: 0%
  Eos: 0.2%
  Fbg: 301.8 mg/dL
  Hb: 13 g/dL
  Ht: 38.1%
  Lym: 78.8%
  MCH: 21.8 pg
  MCHC: 34.1%
  MCV: 64 fL
  Mono: 3%
  Neu: 17%
  PT: 16.2 s
  Plat: 121.8 x10_4/uL
  RBC: 595.2 x10_4/ul
  Ret: 7.2%
  WBC: 114 x10_2/uL
  KIDNEY_L: 0.9 g
  KIDNEY_R: 1 g
  KIDNEY_TOTAL: 1.9 g
  LIVER: 9.7 g
[9]
  ALP: 1674.8 IU/L
  ALT: 40.6 IU/L
  AST: 72.8 IU/L
  CRE: 0.2 mg/dL
  DBIL: 0.002 mg/dL
  GLC: 181.2 mg/dL
  IP: 7.8 mg/dL
  K: 4.2 meq/L
  LDH: 188 IU/L
  PL: 131.8 mg/dL
  RALB: 2.9 g/dL
  TBIL: 0.018 mg/dL
  TC: 66.6 mg/dL
  TG: 91.4 mg/dL
  TP: 5.3 g/dL
  gamma-GTP: 1.4 IU/L
10 mg/kg, 6 h, dose level Low
  TERMINAL_BW: 207.8 g
  APTT: 23.6 s
  Bas: 0%
  Eos: 0.8%
  Fbg: 282.6 mg/dL
  Ht: 39.5%
  Lym: 83%
  MCH: 21 pg
  Mono: 2.8%
  PT: 15.9 s
  Plat: 131.7 x10_4/uL
  RBC: 634.2 x10_4/ul
  Ret: 6.8%
  WBC: 102.7 x10_2/uL
  KIDNEY_L: 0.9 g
  KIDNEY_R: 0.9 g
  KIDNEY_TOTAL: 1.8 g
  LIVER: 8.7 g
[10]
  ALP: 1173 IU/L
  ALT: 36.4 IU/L
  AST: 68.8 IU/L
  CRE: 0.2 mg/dL
  DBIL: 0.002 mg/dL
  GLC: 175 mg/dL
  IP: 9.1 mg/dL
  K: 4.3 meq/L
  LDH: 216.2 IU/L
  PL: 139.6 mg/dL
  RALB: 3 g/dL
  TBIL: 0.022 mg/dL
  TC: 77.6 mg/dL
  TG: 74.8 mg/dL
  TP: 5.4 g/dL
  gamma-GTP: 1.6 IU/L
10 mg/kg, 9 h, dose level Low
  TERMINAL_BW: 208.7 g
  APTT: 23.8 s
  Bas: 0%
  Eos: 0.8%
  Fbg: 317.6 mg/dL
  Ht: 39.5%
  Lym: 80.6%
  MCHC: 33.4%
  Mono: 3.2%
  PT: 16.2 s
  Plat: 125.8 x10_4/uL
  RBC: 642.4 x10_4/ul
  Ret: 6.1%
  WBC: 90.1 x10_2/uL
  KIDNEY_L: 1 g
  KIDNEY_R: 1 g
  KIDNEY_TOTAL: 1.9 g
  LIVER: 8.2 g
[11]
  ALP: 1357 IU/L
  AST: 66.4 IU/L
  BUN: 11 mg/dL
  CRE: 0.1 mg/dL
  DBIL: 0.004 mg/dL
  GLC: 180.6 mg/dL
  IP: 8.9 mg/dL
  K: 4.2 meq/L
  LDH: 120.2 IU/L
  PL: 128 mg/dL
  RALB: 3 g/dL
  TBIL: 0.026 mg/dL
  TC: 69 mg/dL
  TG: 56 mg/dL
  TP: 5.4 g/dL
  gamma-GTP: 1 IU/L
10 mg/kg, 24 h, dose level Low
  TERMINAL_BW: 226 g
  APTT: 23.6 s
  Bas: 0%
  Eos: 0.8%
  Fbg: 300.6 mg/dL
  Ht: 38.7%
  Lym: 80.4%
  MCHC: 34%
  MCV: 61.6 fL
  Mono: 3.2%
  Plat: 126.1 x10_4/uL
  RBC: 628.8 x10_4/ul
  Ret: 6.2%
  WBC: 119.3 x10_2/uL
  KIDNEY_L: 1 g
  KIDNEY_R: 1 g
  KIDNEY_TOTAL: 1.9 g
  LIVER: 10.2 g
[12]
  ALP: 1490.2 IU/L
  ALT: 37.8 IU/L
  AST: 68.2 IU/L
  BUN: 16.6 mg/dL
  CRE: 0.2 mg/dL
  DBIL: 0 mg/dL
  IP: 6.4 mg/dL
  K: 4.5 meq/L
  LDH: 171.6 IU/L
  PL: 139.2 mg/dL
  RALB: 2.9 g/dL
  TBIL: 0.01 mg/dL
  TC: 69.4 mg/dL
  TG: 100 mg/dL
  TP: 5.4 g/dL
  gamma-GTP: 1.2 IU/L
[13]
  TERMINAL_BW: 214 g
  APTT: 23.2 s
  Bas: 0%
  Eos: 1%
  Fbg: 287.4 mg/dL
  Ht: 39.3%
  Lym: 79%
  MCHC: 34%
